Holding throughout (experiment): CYP inhibition assay
Type in all cases: cell-based

One data set concerns CYP1A. The settings on record: read-out: CYP1A.
The target in another data set is CYP3A4 (Homo sapiens, UniProt P08684).
In another data set the target is T1, CYP2C8 (Homo sapiens, UniProt P10632).
T1 sequence (P10632 1-490): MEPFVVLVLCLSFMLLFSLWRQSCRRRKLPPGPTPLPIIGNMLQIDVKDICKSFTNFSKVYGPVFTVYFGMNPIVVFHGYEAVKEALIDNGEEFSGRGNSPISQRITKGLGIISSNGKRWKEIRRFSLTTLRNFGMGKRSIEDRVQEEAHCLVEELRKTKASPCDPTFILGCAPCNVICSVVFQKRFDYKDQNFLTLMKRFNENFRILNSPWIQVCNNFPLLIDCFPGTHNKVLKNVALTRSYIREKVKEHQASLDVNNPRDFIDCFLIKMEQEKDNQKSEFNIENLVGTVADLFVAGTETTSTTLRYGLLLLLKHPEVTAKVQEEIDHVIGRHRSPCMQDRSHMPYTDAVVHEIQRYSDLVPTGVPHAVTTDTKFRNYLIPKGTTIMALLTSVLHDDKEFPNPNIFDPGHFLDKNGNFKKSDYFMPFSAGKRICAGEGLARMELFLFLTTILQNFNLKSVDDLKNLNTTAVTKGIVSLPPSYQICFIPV

The target of the next data set is CYP2C19 (Homo sapiens, UniProt P33261).
CYP2C19, sequence (P33261 whole entry): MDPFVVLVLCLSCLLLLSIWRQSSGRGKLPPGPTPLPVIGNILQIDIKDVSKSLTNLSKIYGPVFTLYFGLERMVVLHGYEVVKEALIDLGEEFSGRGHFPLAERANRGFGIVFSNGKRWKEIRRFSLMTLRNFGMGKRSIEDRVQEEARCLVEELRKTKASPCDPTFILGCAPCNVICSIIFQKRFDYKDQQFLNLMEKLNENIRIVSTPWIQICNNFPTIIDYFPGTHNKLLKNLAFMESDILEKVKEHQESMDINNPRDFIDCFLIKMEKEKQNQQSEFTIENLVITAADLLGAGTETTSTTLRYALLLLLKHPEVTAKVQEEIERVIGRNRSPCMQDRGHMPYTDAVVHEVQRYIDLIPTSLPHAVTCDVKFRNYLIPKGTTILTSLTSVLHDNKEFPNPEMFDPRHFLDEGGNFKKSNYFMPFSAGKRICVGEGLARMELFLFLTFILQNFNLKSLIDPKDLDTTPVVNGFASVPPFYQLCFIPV
For a further data set, the target named is CYP2C9 (Homo sapiens, UniProt P11712).
CYP2C9, sequence (P11712 whole entry): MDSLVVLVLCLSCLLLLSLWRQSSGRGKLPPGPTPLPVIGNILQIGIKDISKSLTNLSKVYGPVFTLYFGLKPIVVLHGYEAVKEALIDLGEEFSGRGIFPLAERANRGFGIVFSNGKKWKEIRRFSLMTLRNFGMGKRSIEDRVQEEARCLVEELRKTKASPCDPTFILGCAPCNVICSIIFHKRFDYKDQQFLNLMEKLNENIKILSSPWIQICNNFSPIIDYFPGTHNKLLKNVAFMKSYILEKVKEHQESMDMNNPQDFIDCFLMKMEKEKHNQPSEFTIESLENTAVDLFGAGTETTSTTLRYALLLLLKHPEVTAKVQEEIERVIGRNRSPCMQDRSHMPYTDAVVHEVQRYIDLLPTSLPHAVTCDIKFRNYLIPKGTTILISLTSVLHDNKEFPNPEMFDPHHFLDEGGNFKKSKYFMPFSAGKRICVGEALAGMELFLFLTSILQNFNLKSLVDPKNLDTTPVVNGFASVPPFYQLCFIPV
A further data set concerns the target CYP2D6 (Homo sapiens, UniProt P10635).

CYP2D6, sequence (P10635 whole entry): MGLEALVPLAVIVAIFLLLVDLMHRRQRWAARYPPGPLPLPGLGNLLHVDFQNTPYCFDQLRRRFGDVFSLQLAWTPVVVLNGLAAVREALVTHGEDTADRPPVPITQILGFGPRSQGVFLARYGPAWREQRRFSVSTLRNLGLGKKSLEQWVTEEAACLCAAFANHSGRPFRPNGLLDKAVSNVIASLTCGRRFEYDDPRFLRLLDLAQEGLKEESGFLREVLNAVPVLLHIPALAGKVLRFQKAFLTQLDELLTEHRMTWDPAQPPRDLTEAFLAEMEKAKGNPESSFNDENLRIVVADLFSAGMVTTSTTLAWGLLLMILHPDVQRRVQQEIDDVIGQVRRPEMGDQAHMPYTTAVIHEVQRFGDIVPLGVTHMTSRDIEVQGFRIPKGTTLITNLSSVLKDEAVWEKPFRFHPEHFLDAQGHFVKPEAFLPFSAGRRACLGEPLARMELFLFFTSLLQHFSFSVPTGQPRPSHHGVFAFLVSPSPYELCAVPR
CYP3A4, sequence (P08684 2-503): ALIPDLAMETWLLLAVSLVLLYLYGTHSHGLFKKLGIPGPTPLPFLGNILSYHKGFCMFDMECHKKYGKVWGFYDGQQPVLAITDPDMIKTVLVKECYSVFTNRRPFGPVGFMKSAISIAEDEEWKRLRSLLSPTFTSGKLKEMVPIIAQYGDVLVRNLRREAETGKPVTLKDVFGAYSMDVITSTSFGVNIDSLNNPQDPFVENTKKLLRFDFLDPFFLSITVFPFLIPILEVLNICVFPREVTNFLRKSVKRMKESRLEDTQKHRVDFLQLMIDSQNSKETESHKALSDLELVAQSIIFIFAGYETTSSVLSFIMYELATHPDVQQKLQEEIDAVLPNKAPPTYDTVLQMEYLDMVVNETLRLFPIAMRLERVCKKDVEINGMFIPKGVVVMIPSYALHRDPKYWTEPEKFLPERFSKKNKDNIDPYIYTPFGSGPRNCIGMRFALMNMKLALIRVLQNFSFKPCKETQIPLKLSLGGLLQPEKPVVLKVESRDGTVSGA

Take `OC(Cn1cncn1)(Cn1cncn1)c1ccc(F)cc1F` [Fluconazole]: the IC50 in the data set on CYP1A is greater than 100000 nM.

As to `CN(C[c-]1cccc1)CC(O)(Cn1cncn1)c1ccc(F)cc1F.Cl.[Fe+2].c1cc[cH-]c1` (stereo not shown) [2a, N-(ferrocenylmethyl)-2-(2,4-difluorophenyl)-2-hydroxy-N-methyl-3-(1H-1,2,4-triazol-1-yl)propan-1-aminium chloride], the IC50 at CYP3A4 is 400 ± 60 nM; in the data set on CYP1A, 10400 ± 410 nM; against CYP2C8, 640 ± 90 nM; at CYP2C19 it was less than 400 nM; on CYP2C9, 3330 ± 710 nM; against CYP2D6 it was 2710 ± 120 nM.

For the origin of these results see publication PMC8341145 (RSC Chemical Biology, 2021).
